Species: Rattus norvegicus
Experiment: DrugMatrix - Regimen: Daily Repeat
Assay type: toxicity, organism-based, Sprague-Dawley
Design: regimen Daily Repeat, gender Male, age 6-8 weeks
Conditions: in vivo, po, route oral GAVAGE; for BASOPHIL / EOSINOPHIL / ERYTHROCYTE COUNT / HEMATOCRIT / HEMOGLOBIN / LEUKOCYTE COUNT / LYMPHOCYTE / MEAN CORPUSCULAR HEMOGLOBIN / MEAN CORPUSCULAR HEMOGLOBIN CONCENTRATION / MEAN CORPUSCULAR VOLUME / MONOCYTE / NEUTROPHIL / NUCLEATED RED BLOOD CELLS / PLATELET COUNT / ABSOLUTE BASOPHIL / ABSOLUTE EOSINOPHIL / ABSOLUTE LYMPHOCYTE / ABSOLUTE MONOCYTE / ABSOLUTE SEGMENTED NEUTROPHIL: tissue Blood; for ALANINE AMINOTRANSFERASE / ALBUMIN / ALKALINE PHOSPHATASE / ASPARTATE AMINOTRANSFERASE / BLOOD UREA NITROGEN / CARBON DIOXIDE / CHLORIDE / CHOLESTEROL / CREATINE PHOSPHOKINASE / CREATININE / GLUCOSE / LACTATE DEHYDROGENASE / LIPASE / PHOSPHORUS / POTASSIUM / SODIUM / TOTAL BILIRUBIN / TOTAL PROTEIN / URIC ACID: tissue Plasma
[1] = 300 mg/kg, 120 h, dose level M2, time 5 day, vehicle 100 % SALINE
[2] = 420 mg/kg, 72 h, dose level High, time 3 day, vehicle 100 % WATER
[3] = 420 mg/kg, 120 h, dose level High, time 5 day, vehicle 100 % WATER
[4] = […], 72 h, dose 2.5 mg/Kg, dose level Low, time 3 day, vehicle 100 % WATER
[5] = […], 120 h, dose 2.5 mg/Kg, dose level Low, time 5 day, vehicle 100 % WATER

SMILES: CCCc1nn(C)c2c(=O)[nH]c(-c3cc(S(=O)(=O)N4CCN(C)CC4)ccc3OCC)nc12
- BASOPHIL [1]: 0%
- EOSINOPHIL [1]: 0%
- ERYTHROCYTE COUNT [1]: 5.43 x10E6/uL
- HEMATOCRIT [1]: 35.43%
- HEMOGLOBIN [1]: 14 G/DL
- LEUKOCYTE COUNT [1]: 11.23 x10E3/uL
- LYMPHOCYTE [1]: 91%
- MEAN CORPUSCULAR HEMOGLOBIN [1]: 25.83 pg
- MEAN CORPUSCULAR HEMOGLOBIN CONCENTRATION [1]: 39.53 G/DL
- MEAN CORPUSCULAR VOLUME [1]: 65.33 fL
- MONOCYTE [1]: 0%
- NEUTROPHIL [1]: 9%
- NUCLEATED RED BLOOD CELLS [1]: 0.67 /100WBC
- PLATELET COUNT [1]: 1112.67 x10E3/uL
- ALANINE AMINOTRANSFERASE [1]: 45 u/L
- ALBUMIN [1]: 4.03 G/DL
- ALKALINE PHOSPHATASE [1]: 344 u/L
- ASPARTATE AMINOTRANSFERASE [1]: 70.33 u/L
- BLOOD UREA NITROGEN [1]: 14.67 mg/dL
- CARBON DIOXIDE [1]: 33 mmol/L
- CHLORIDE [1]: 100.33 MEQ/L
- CHOLESTEROL [1]: 70 mg/dL
- CREATINE PHOSPHOKINASE [1]: 212 u/L
- CREATININE [1]: 0.31 mg/dL
- GLUCOSE [1]: 137.33 mg/dL
- LACTATE DEHYDROGENASE [1]: 106 u/L
- LIPASE [1]: 11.33 u/L
- PHOSPHORUS [1]: 10.77 mg/dL
- POTASSIUM [1]: 6.45 MEQ/L
- SODIUM [1]: 146.53 MEQ/L
- TOTAL BILIRUBIN [1]: 0.2 mg/dL
- TOTAL PROTEIN [1]: 5.43 G/DL
- URIC ACID [1]: 0.73 mg/dL
- ABSOLUTE BASOPHIL [2]: 0 CELLS/uL
- ABSOLUTE EOSINOPHIL [2]: 0 CELLS/uL
- ABSOLUTE LYMPHOCYTE [2]: 12448.33 CELLS/uL
- ABSOLUTE MONOCYTE [2]: 74 CELLS/uL
- ABSOLUTE SEGMENTED NEUTROPHIL [2]: 877.67 CELLS/uL
- BASOPHIL [2]: 0%
- EOSINOPHIL [2]: 0%
- ERYTHROCYTE COUNT [2]: 5.64 x10E6/uL
- HEMATOCRIT [2]: 35.27%
- HEMOGLOBIN [2]: 13.43 G/DL
- LEUKOCYTE COUNT [2]: 13.4 x10E3/uL
- LYMPHOCYTE [2]: 92.33%
- MEAN CORPUSCULAR HEMOGLOBIN [2]: 23.8 pg
- MEAN CORPUSCULAR HEMOGLOBIN CONCENTRATION [2]: 38.1 G/DL
- MEAN CORPUSCULAR VOLUME [2]: 62.57 fL
- MONOCYTE [2]: 0.67%
- NEUTROPHIL [2]: 7%
- NUCLEATED RED BLOOD CELLS [2]: 0 /100WBC
- PLATELET COUNT [2]: 944.33 x10E3/uL
- ALANINE AMINOTRANSFERASE [2]: 41.67 u/L
- ALBUMIN [2]: 3.77 G/DL
- ALKALINE PHOSPHATASE [2]: 304 u/L
- ASPARTATE AMINOTRANSFERASE [2]: 72.67 u/L
- BLOOD UREA NITROGEN [2]: 16.33 mg/dL
- CARBON DIOXIDE [2]: 30.33 mmol/L
- CHLORIDE [2]: 102.33 MEQ/L
- CHOLESTEROL [2]: 79.67 mg/dL
- CREATINE PHOSPHOKINASE [2]: 170 u/L
- CREATININE [2]: 0.14 mg/dL
- GLUCOSE [2]: 148 mg/dL
- LACTATE DEHYDROGENASE [2]: 130.33 u/L
- LIPASE [2]: 9.67 u/L
- PHOSPHORUS [2]: 8.4 mg/dL
- POTASSIUM [2]: 5.71 MEQ/L
- SODIUM [2]: 146.4 MEQ/L
- TOTAL BILIRUBIN [2]: 0.23 mg/dL
- TOTAL PROTEIN [2]: 5.6 G/DL
- URIC ACID [2]: 0.5 mg/dL
- ABSOLUTE BASOPHIL [3]: 0 CELLS/uL
- ABSOLUTE EOSINOPHIL [3]: 0 CELLS/uL
- ABSOLUTE LYMPHOCYTE [3]: 8874.67 CELLS/uL
- ABSOLUTE MONOCYTE [3]: 36 CELLS/uL
- ABSOLUTE SEGMENTED NEUTROPHIL [3]: 756 CELLS/uL
- BASOPHIL [3]: 0%
- EOSINOPHIL [3]: 0%
- ERYTHROCYTE COUNT [3]: 5.05 x10E6/uL
- HEMATOCRIT [3]: 32.73%
- HEMOGLOBIN [3]: 12.9 G/DL
- LEUKOCYTE COUNT [3]: 9.67 x10E3/uL
- LYMPHOCYTE [3]: 91.67%
- MEAN CORPUSCULAR HEMOGLOBIN [3]: 25.53 pg
- MEAN CORPUSCULAR HEMOGLOBIN CONCENTRATION [3]: 39.4 G/DL
- MEAN CORPUSCULAR VOLUME [3]: 64.8 fL
- MONOCYTE [3]: 0.33%
- NEUTROPHIL [3]: 8%
- NUCLEATED RED BLOOD CELLS [3]: 0 /100WBC
- PLATELET COUNT [3]: 1090.67 x10E3/uL
- ALANINE AMINOTRANSFERASE [3]: 33.67 u/L
- ALBUMIN [3]: 3.67 G/DL
- ALKALINE PHOSPHATASE [3]: 232 u/L
- ASPARTATE AMINOTRANSFERASE [3]: 57 u/L
- BLOOD UREA NITROGEN [3]: 15.67 mg/dL
- CARBON DIOXIDE [3]: 33.67 mmol/L
- CHLORIDE [3]: 99 MEQ/L
- CHOLESTEROL [3]: 77.67 mg/dL
- CREATINE PHOSPHOKINASE [3]: 155 u/L
- CREATININE [3]: 0.11 mg/dL
- GLUCOSE [3]: 144.67 mg/dL
- LACTATE DEHYDROGENASE [3]: 100 u/L
- LIPASE [3]: 10 u/L
- PHOSPHORUS [3]: 10.2 mg/dL
- POTASSIUM [3]: 5.99 MEQ/L
- SODIUM [3]: 146.03 MEQ/L
- TOTAL BILIRUBIN [3]: 0.17 mg/dL
- TOTAL PROTEIN [3]: 5.83 G/DL
- URIC ACID [3]: 0.63 mg/dL
- ABSOLUTE BASOPHIL [4]: 0 CELLS/uL
- ABSOLUTE EOSINOPHIL [4]: 0 CELLS/uL
- ABSOLUTE LYMPHOCYTE [4]: 7128 CELLS/uL
- ABSOLUTE MONOCYTE [4]: 81 CELLS/uL
- ABSOLUTE SEGMENTED NEUTROPHIL [4]: 891 CELLS/uL
- BASOPHIL [4]: 0%
- EOSINOPHIL [4]: 0%
- ERYTHROCYTE COUNT [4]: 5.44 x10E6/uL
- HEMATOCRIT [4]: 34.27%
- HEMOGLOBIN [4]: 13.2 G/DL
- LEUKOCYTE COUNT [4]: 8.1 x10E3/uL
- LYMPHOCYTE [4]: 88%
- MEAN CORPUSCULAR HEMOGLOBIN [4]: 24.4 pg
- MEAN CORPUSCULAR HEMOGLOBIN CONCENTRATION [4]: 38.53 G/DL
- MEAN CORPUSCULAR VOLUME [4]: 63.23 fL
- MONOCYTE [4]: 1%
- NEUTROPHIL [4]: 11%
- NUCLEATED RED BLOOD CELLS [4]: 0.33 /100WBC
- PLATELET COUNT [4]: 1027 x10E3/uL
- ALANINE AMINOTRANSFERASE [4]: 61 u/L
- ALBUMIN [4]: 4.03 G/DL
- ALKALINE PHOSPHATASE [4]: 377.33 u/L
- ASPARTATE AMINOTRANSFERASE [4]: 87.33 u/L
- BLOOD UREA NITROGEN [4]: 16 mg/dL
- CARBON DIOXIDE [4]: 29.33 mmol/L
- CHLORIDE [4]: 101.67 MEQ/L
- CHOLESTEROL [4]: 61 mg/dL
- CREATINE PHOSPHOKINASE [4]: 188.67 u/L
- CREATININE [4]: 0.1 mg/dL
- GLUCOSE [4]: 163 mg/dL
- LACTATE DEHYDROGENASE [4]: 107.67 u/L
- LIPASE [4]: 8.33 u/L
- PHOSPHORUS [4]: 9.57 mg/dL
- POTASSIUM [4]: 5.88 MEQ/L
- SODIUM [4]: 147.5 MEQ/L
- TOTAL BILIRUBIN [4]: 0.17 mg/dL
- TOTAL PROTEIN [4]: 5.97 G/DL
- URIC ACID [4]: 0.63 mg/dL
- ABSOLUTE BASOPHIL [5]: 0 CELLS/uL
- ABSOLUTE EOSINOPHIL [5]: 0 CELLS/uL
- ABSOLUTE LYMPHOCYTE [5]: 7975.33 CELLS/uL
- ABSOLUTE MONOCYTE [5]: 0 CELLS/uL
- ABSOLUTE SEGMENTED NEUTROPHIL [5]: 658 CELLS/uL
- BASOPHIL [5]: 0%
- EOSINOPHIL [5]: 0%
- ERYTHROCYTE COUNT [5]: 5.39 x10E6/uL
- HEMATOCRIT [5]: 34.73%
- HEMOGLOBIN [5]: 14 G/DL
- LEUKOCYTE COUNT [5]: 8.63 x10E3/uL
- LYMPHOCYTE [5]: 92%
- MEAN CORPUSCULAR HEMOGLOBIN [5]: 26 pg
- MEAN CORPUSCULAR HEMOGLOBIN CONCENTRATION [5]: 40.3 G/DL
- MEAN CORPUSCULAR VOLUME [5]: 64.5 fL
- MONOCYTE [5]: 0%
- NEUTROPHIL [5]: 8%
- NUCLEATED RED BLOOD CELLS [5]: 0.33 /100WBC
- PLATELET COUNT [5]: 629.67 x10E3/uL
- ALANINE AMINOTRANSFERASE [5]: 49.67 u/L
- ALBUMIN [5]: 4.27 G/DL
- ALKALINE PHOSPHATASE [5]: 363.67 u/L
- ASPARTATE AMINOTRANSFERASE [5]: 76 u/L
- BLOOD UREA NITROGEN [5]: 14.33 mg/dL
- CARBON DIOXIDE [5]: 32 mmol/L
- CHLORIDE [5]: 98.67 MEQ/L
- CHOLESTEROL [5]: 77 mg/dL
- CREATINE PHOSPHOKINASE [5]: 203.33 u/L
- CREATININE [5]: 0.13 mg/dL
- GLUCOSE [5]: 145.33 mg/dL
- LACTATE DEHYDROGENASE [5]: 120 u/L
- LIPASE [5]: 9.33 u/L
- PHOSPHORUS [5]: 11.67 mg/dL
- POTASSIUM [5]: 6.39 MEQ/L
- SODIUM [5]: 144.5 MEQ/L
- TOTAL BILIRUBIN [5]: 0.2 mg/dL
- TOTAL PROTEIN [5]: 6.3 G/DL
- URIC ACID [5]: 0.87 mg/dL

Source: ChEMBL document CHEMBL3885881, “DrugMatrix”
